Test results published in paper PMC4672351, “Drug-Drug Interaction Potentials of Tyrosine Kinase Inhibitors via Inhibition of UDP-Glucuronosyltransferases” (Scientific Reports, 2015).

Assays:
UGT1A4 = target: T1, UGT1A4 (Homo sapiens, UniProt P22310); assay: Prediction of DDI risk (AUCi/AUC) from in vitro data, UGT1A4 substrates; parameters: purchased BD Gentest (Woburn, MA); host or cells: baculovirus-infected insect cells; settings: fm is 1
T1 sequence (P22310 29-534): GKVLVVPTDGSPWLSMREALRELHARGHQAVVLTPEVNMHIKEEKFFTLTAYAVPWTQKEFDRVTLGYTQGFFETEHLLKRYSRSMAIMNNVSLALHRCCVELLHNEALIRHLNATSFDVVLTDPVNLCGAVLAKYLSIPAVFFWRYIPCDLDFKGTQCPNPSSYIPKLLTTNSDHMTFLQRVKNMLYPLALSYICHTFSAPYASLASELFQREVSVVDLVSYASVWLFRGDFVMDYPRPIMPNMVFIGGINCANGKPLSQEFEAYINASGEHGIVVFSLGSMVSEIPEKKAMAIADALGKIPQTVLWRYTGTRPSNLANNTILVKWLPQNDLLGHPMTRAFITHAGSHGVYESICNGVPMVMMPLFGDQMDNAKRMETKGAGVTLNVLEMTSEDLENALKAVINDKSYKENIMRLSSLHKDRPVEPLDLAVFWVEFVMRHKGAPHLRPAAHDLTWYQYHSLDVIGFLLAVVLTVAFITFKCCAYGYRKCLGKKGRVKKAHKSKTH
Protocol: The ratio was calculated based on the eq.

UGT1A1 = target: T2, UGT1A1 (Homo sapiens, UniProt P22309); settings: fm is 1; clinical doses
T2 sequence (P22309 26-533): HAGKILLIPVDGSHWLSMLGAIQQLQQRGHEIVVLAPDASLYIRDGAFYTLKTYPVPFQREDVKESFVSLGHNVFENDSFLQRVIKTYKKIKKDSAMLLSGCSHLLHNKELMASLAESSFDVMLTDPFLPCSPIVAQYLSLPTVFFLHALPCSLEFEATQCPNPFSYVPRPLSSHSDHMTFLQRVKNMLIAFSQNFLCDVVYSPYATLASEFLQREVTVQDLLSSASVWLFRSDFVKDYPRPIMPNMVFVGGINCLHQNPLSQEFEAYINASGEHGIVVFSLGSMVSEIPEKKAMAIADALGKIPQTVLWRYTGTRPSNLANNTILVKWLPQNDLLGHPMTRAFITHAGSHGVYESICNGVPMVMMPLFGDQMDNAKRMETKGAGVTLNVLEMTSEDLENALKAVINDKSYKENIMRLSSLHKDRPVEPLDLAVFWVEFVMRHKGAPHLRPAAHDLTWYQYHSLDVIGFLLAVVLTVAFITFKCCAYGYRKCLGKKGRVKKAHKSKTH

UGT1A9 = target: T3, UGT1A9 (Homo sapiens, UniProt O60656); settings: 4-MU substrate
T3 sequence (O60656 26-530): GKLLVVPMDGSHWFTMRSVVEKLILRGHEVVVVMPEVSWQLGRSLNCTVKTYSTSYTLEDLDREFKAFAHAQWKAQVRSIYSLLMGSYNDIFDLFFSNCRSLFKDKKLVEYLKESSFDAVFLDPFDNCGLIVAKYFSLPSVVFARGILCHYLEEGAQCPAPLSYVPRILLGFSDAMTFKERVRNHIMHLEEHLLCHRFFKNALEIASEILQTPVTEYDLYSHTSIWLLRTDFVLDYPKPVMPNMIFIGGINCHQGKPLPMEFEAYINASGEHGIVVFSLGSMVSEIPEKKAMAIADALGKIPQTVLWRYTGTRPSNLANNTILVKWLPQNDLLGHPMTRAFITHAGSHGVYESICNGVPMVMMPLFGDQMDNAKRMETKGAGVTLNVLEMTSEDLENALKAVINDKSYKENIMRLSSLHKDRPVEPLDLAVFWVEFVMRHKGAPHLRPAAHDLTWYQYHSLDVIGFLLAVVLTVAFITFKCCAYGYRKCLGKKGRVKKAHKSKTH

## CNC(=O)c1ccccc1Sc1ccc2c(/C=C/c3ccccn3)n[nH]c2c1 [Axitinib, axitinib]
UGT1A4
  Predicted AUCi/AUC ratio of UGT1A4 substrates: ~1

## CS(=O)(=O)CCNCc1ccc(-c2ccc3ncnc(Nc4ccc(OCc5cccc(F)c5)c(Cl)c4)c3c2)o1 [Lapatinib, lapatinib]
UGT1A1
  Predicted increase in AUC of UGT1A1 substrates (4-MU and SN-38): ~ 25%

## COc1cc2c(Nc3ccc(Br)cc3F)ncnc2cc1OCC1CCN(C)CC1 [Vandetanib, vandetanib]
UGT1A9
  inhibition type, UGT1A9: mixed
